pIC50: −log10 of the molar value. Entries after “also recorded” stand apart in the source; their conditions may differ.
Tests used:
[1] = tested on: HT-29 cells; assay: Apoptosis and necrosis by morphology (acridine orange/ethidium bromide); format: cell-based; details: HT-29 cells treated for 6 days
Description: In one type of apoptosis assay, suspected neoplastic cells are removed from a patient. The cells are then grown in culture in the presence or absence of a cGMP-specific PDE inhibitor. Apoptotic cells are measured by combining both the attached and “floating” compartments of the cultures. The protocol for treating tumor cell cultures with PDE inhibitors and related compounds to obtain a significant amount of apoptosis has been described in the literature. (See, Piazza, G. A., et al., Cancer Research, 55:3110-16, 1995, which is incorporated herein by reference). The novel features of this assay include collecting both floating and attached cells, identification of the optimal treatment times and dose range for observing apoptosis, and identification of optimal cell culture conditions.
Following treatment of neoplastic and normal cells with a test compound, cultures can be assayed for apoptosis and necrosis by fluorescent microscopy following labeling with acridine orange and ethidium bromide. The method for measuring apoptotic cell number has previously been described by Duke & Cohen, “Morphological And Biochemical Assays Of Apoptosis,” Current Protocols In Immunology, Coligan et al., eds. 3.17.1-3.17.16 (1992, which is incorporated herein by reference).
For example, floating and attached cells are collected, and aliquots of cells are centrifuged. The cell pellet is then resuspended in media and a dye mixture containing acridine orange and ethidium bromide. The mixture is then examined microscopically for morphological features of apoptosis.
Apoptotic and necrotic cell death was determined as previously described (Duke and Cohen, In: Current Protocols in Immunology, 3.17.1-3.17.16, New York, John Wiley and Sons, 1992). […] All data were collected from the same experiment.
The diagnostic method of this invention is used to determine whether a particular neoplasia is sensitive to treatment with a cGMP-specific PDE inhibitor. The apoptosis inducing activity for a series of phosphodiesterase inhibitors, specific for different PDEs, was determined. HT-29 cells were treated for 6 days with various inhibitors of phosphodiesterase. Apoptosis and necrosis were determined morphologically after acridine orange and ethidium bromide labeling in accordance with the assay described, supra.

[2] = tested on: neoplastic cells; assay: Apoptosis induction and growth inhibition in neoplastic cells (words only); format: cell-based
[3] = tested on: PDE peak B (novel cGMP-specific PDE) from SW-480 cells; assay: cGMP hydrolysis by PDE peak B; format: biochemical, human; details: for pIC50: cGMP hydrolysis, 0.25 μM 3H-cGMP substrate

COc1nc2c([nH]1)c(=O)n(C)c(=O)n2CC(C)C [8-methoxy-IBMX]
% Apoptosis [1]: 2%
% Necrosis [1]: 1%

O=C([O-])C1CCN(c2nc(NCc3ccc4c(c3)OCO4)c3cc(Cl)ccc3n2)CC1.[Na+] [Compound E4021]
Apoptosis induction in neoplastic cells (in words) [2]: none of the three; also recorded: do not have significant apoptosis-inducing or growth-inhibiting properties
Growth inhibition of neoplastic cells (in words) [2]: none of the three; also recorded: do not have significant apoptosis-inducing or growth-inhibiting properties
Sensitivity of the new cGMP-PDE to inhibition (in words) [3]: relatively insensitive

CC(C)Cn1c(=O)n(C)c(=O)c2[nH]cnc21 [IBMX]
% Apoptosis [1]: 4%
% Necrosis [1]: 13%

Clc1cccc(Nc2nnc(-c3ccccc3)c3ccccc23)c1 [MY5445]
% Apoptosis [1]: 80%
% Necrosis [1]: 5%

CCCCOc1cc(CC2CNC(=O)N2)ccc1OC (stereo not drawn) [RO-20-1724]
% Apoptosis [1]: 11%
% Necrosis [1]: 2%

COc1ccc(C2CNC(=O)C2)cc1OC1CCCC1 (stereo not drawn) [Rolipram]
Sensitivity of the new cGMP-PDE to inhibition (in words) [3]: relatively insensitive
pIC50 [3]: < 4.00

CCOC(=O)C1=C[C@]2(CC)CCCN3CCc4c(n1c1ccccc41)[C@@H]32 [Vinpocetine]
Sensitivity of the new cGMP-PDE to inhibition (in words) [3]: relatively insensitive
pIC50 [3]: < 4.00
